The target of the first data set is Cytochrome P450 2D6 (Homo sapiens, UniProt P10635). Further: in other assays of this panel Not Active means under 50% inhibition at 10 µM.
Cytochrome P450 2D6, sequence (P10635 whole entry): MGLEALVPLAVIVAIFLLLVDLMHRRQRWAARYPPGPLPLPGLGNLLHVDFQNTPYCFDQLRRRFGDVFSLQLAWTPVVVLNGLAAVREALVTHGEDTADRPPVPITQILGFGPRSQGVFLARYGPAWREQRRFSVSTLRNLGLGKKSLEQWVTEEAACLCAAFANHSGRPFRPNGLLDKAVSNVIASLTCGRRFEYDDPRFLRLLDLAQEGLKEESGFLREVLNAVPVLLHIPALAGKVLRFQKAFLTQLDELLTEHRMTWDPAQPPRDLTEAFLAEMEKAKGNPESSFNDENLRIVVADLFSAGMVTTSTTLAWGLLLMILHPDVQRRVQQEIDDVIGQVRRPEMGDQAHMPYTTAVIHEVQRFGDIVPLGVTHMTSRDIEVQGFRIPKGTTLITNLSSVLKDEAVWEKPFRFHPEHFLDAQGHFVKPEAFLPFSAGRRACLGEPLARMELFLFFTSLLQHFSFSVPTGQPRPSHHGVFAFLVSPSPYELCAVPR
Experiment: not given
As to conditions: bti-tn-5b1-4.
5-hydroxytryptamine receptor 6, sequence (P50406 whole entry): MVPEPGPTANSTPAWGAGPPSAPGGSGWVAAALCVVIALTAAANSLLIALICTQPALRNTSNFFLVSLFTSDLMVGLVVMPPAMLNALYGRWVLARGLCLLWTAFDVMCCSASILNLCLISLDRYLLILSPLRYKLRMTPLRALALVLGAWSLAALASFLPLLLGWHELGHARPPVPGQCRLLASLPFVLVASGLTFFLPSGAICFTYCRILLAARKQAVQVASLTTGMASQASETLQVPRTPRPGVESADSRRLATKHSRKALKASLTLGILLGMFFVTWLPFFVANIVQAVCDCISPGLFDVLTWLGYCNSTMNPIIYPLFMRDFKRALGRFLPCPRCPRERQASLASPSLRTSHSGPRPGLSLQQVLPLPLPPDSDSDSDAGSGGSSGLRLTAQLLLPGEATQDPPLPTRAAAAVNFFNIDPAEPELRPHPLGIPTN
With `CCCCCCCCCc1ccc(O)cc1` [4-NONYLPHENOL], the concentration for half-maximal inhibition (IC50) entry is given as “Not Active” and the Ki entry is “Not Active”.
Turning to `c1ccc2c(c1)cc1ccc3cccc4ccc2c1c34`, the IC50 entry was “Not Active” and the inhibition constant (Ki) result was “Not Active”.
In the case of `COc1ccc([C@@H]2Sc3ccccc3N(CCN(C)C)C(=O)[C@@H]2OC(C)=O)cc1` [DILTIAZEM], the half-inhibitory concentration (IC50) entry is “Not Active” and the inhibition constant Ki result is “Not Active”.

Test system in the next data set: not listed separately
Briefly: DRUGMATRIX: Calcium Channel Type L, Benzothiazepine radioligand binding (ligand: [3H] Diltiazem). It counts as cell membranes, Rattus norvegicus, Wistar, Brain, Membrane. Particulars: Not Active = under 50% inhibition at 10 µM.
Turning to `CCCCCCCCCc1ccc(O)cc1` [4-NONYLPHENOL], the half-maximal inhibitory concentration (IC50) result is “Not Active” and the Ki result is given as “Not Active”.
As to `c1ccc2c(c1)cc1ccc3cccc4ccc2c1c34`, the half-maximal inhibitory concentration (IC50) result was “Not Active” and the Ki result was “Not Active”.

Staying with this data set, now noted: Not Active = under 50% inhibition at 10 µM; read-out: IC50.
As to `COc1ccc([C@@H]2Sc3ccccc3N(CCN(C)C)C(=O)[C@@H]2OC(C)=O)cc1` [DILTIAZEM], the IC50 turned out to be 0.028 µM.

The data set is the same for the next values; noted with them: Not Active = under 50% inhibition at 10 µM; read-out: Ki.
Consider `COc1ccc([C@@H]2Sc3ccccc3N(CCN(C)C)C(=O)[C@@H]2OC(C)=O)cc1` [DILTIAZEM], for which the inhibition constant Ki is 0.025 µM.

The target in the next data set is D(1A) dopamine receptor (Homo sapiens, UniProt P21728). Briefly: DRUGMATRIX: Dopamine D1 radioligand binding (ligand: [3H] SCH-23390). The data set is classed as cell membranes, CHO, Membrane. As to conditions: cho; Not Active = under 50% inhibition at 10 µM.
D(1A) dopamine receptor, sequence (P21728 whole entry): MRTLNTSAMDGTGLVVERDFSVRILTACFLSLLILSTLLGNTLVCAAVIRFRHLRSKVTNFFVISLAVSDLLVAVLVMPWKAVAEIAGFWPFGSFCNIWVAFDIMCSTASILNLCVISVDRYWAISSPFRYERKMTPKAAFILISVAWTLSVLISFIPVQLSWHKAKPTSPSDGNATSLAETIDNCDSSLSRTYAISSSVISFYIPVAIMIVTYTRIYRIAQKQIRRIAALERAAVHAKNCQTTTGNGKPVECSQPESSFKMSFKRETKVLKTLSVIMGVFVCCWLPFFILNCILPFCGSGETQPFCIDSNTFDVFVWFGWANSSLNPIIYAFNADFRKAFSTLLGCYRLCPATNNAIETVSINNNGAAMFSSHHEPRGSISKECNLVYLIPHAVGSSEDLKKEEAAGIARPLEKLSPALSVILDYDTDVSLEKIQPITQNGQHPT
For `CCCCCCCCCc1ccc(O)cc1` [4-NONYLPHENOL], the IC50 entry is listed as “Not Active”.
Take `c1ccc2c(c1)cc1ccc3cccc4ccc2c1c34`: the 50% inhibitory concentration (IC50) entry is recorded as “Not Active”.
Consider `COc1ccc([C@@H]2Sc3ccccc3N(CCN(C)C)C(=O)[C@@H]2OC(C)=O)cc1` [DILTIAZEM], for which the IC50 entry is reported as “Not Active”.

For another data set, the target named is Beta-3 adrenergic receptor (Homo sapiens, UniProt P13945). Briefly: DRUGMATRIX: Adrenergic beta3 radioligand binding (ligand: [125I] Cyanopindolol). It counts as cell membranes, HEK293, Membrane. As to conditions: Not Active = under 50% inhibition at 10 µM; read-out: IC50.
Beta-3 adrenergic receptor, sequence (P13945 whole entry): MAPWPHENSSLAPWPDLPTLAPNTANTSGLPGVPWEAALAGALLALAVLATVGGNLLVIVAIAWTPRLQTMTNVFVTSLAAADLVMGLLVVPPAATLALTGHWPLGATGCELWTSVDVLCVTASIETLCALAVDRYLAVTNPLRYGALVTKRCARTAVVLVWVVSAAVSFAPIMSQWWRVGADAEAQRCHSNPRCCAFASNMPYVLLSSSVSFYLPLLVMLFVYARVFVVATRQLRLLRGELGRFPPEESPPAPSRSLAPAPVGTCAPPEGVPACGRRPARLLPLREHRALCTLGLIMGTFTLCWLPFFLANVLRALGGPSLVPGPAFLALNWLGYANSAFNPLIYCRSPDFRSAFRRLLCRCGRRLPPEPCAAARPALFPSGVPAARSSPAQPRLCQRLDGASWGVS
Take `CCCCCCCCCc1ccc(O)cc1` [4-NONYLPHENOL]: the concentration for half-maximal inhibition (IC50) was determined as 4.19 µM.

Staying with this data set, now noted: Not Active = under 50% inhibition at 10 µM; read-out: Ki.
For `CCCCCCCCCc1ccc(O)cc1` [4-NONYLPHENOL], the Ki was 3.14 µM.

Staying with this data set, now noted: hek293; Not Active = under 50% inhibition at 10 µM.
With `c1ccc2c(c1)cc1ccc3cccc4ccc2c1c34`, the half-inhibitory concentration (IC50) entry is recorded as “Not Active”.
On to `COc1ccc([C@@H]2Sc3ccccc3N(CCN(C)C)C(=O)[C@@H]2OC(C)=O)cc1` [DILTIAZEM], for which the half-maximal inhibitory concentration (IC50) entry was “Not Active”.

Another data set concerns the target 5-hydroxytryptamine receptor 6 (Homo sapiens, UniProt P50406). Further: in other assays of this panel Not Active means under 50% inhibition at 10 µM.
Experiment: not given
The data set is classed as cell membranes, HeLa, Membrane. Particulars: hela.
`CCCCCCCCCc1ccc(O)cc1` [4-NONYLPHENOL]: the half-inhibitory concentration (IC50) result was “Not Active”.
For `c1ccc2c(c1)cc1ccc3cccc4ccc2c1c34`, the IC50 result is “Not Active”.
Still for that read-out and setting: the entry for `COc1ccc([C@@H]2Sc3ccccc3N(CCN(C)C)C(=O)[C@@H]2OC(C)=O)cc1` [DILTIAZEM] is “Not Active”.

The next data set addresses T1, Adenosine receptor A3 (Homo sapiens, UniProt P0DMS8).
T1 sequence (P0DMS8 whole entry): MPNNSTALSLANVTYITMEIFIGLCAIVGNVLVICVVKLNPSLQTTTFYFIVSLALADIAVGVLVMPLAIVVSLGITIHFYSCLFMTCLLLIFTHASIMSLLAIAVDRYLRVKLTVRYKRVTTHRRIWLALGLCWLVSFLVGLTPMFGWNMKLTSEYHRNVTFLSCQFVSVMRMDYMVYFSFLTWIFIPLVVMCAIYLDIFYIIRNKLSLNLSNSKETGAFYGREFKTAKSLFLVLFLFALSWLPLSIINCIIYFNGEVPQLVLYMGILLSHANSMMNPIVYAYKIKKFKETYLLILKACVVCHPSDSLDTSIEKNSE
Experiment: not given
It counts as cell membranes, CHO-K1, Membrane. As to conditions: cho-k1.
With `c1ccc2c(c1)cc1ccc3cccc4ccc2c1c34`, the IC50 result was “Not Active”.
In the case of `COc1ccc([C@@H]2Sc3ccccc3N(CCN(C)C)C(=O)[C@@H]2OC(C)=O)cc1` [DILTIAZEM], the IC50 entry is “Not Active”.

The same data set, now with this note: read-out: IC50.
As for `CCCCCCCCCc1ccc(O)cc1` [4-NONYLPHENOL], the IC50 was 1.92 µM.

Staying with this data set, now noted: read-out: Ki.
Regarding `CCCCCCCCCc1ccc(O)cc1` [4-NONYLPHENOL], the inhibition constant (Ki) stood at 1.08 µM.

Another data set deals with T2, C-X-C chemokine receptor type 2 (Homo sapiens, UniProt P25025).
T2 sequence (P25025 whole entry): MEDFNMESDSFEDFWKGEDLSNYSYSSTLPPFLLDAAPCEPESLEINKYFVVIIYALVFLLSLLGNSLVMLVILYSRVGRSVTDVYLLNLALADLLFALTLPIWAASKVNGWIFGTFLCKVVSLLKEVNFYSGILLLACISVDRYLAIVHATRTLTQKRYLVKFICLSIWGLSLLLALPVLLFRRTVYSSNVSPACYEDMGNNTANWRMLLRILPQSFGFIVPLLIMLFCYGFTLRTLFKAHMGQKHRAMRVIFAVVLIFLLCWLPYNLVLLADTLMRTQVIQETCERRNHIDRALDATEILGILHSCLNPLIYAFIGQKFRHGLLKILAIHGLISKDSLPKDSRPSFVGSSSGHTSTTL
Experiment: not given
It counts as cell membranes, Membrane. As to conditions: cho-k1.
In the case of `CCCCCCCCCc1ccc(O)cc1` [4-NONYLPHENOL], the IC50 entry is on record as “Not Active”.
On the same count and under the same terms, the entry for `c1ccc2c(c1)cc1ccc3cccc4ccc2c1c34` is “Not Active”.
The same measure, in the same setting: to `COc1ccc([C@@H]2Sc3ccccc3N(CCN(C)C)C(=O)[C@@H]2OC(C)=O)cc1` [DILTIAZEM] belongs “Not Active”.

Test system in the next data set: not listed separately
Briefly: DRUGMATRIX: GABAA, Chloride Channel, TBOB radioligand binding (ligand: [3H] TBOB). The data set is classed as cell membranes, Rattus norvegicus, Wistar, Cerebral cortex, Membrane. Particulars: Not Active = under 50% inhibition at 10 µM.
As to `CCCCCCCCCc1ccc(O)cc1` [4-NONYLPHENOL], the IC50 entry is “Not Active” and the Ki entry was “Not Active”.
In the case of `c1ccc2c(c1)cc1ccc3cccc4ccc2c1c34`, the IC50 result was “Not Active” and the Ki entry is “Not Active”.
On to `COc1ccc([C@@H]2Sc3ccccc3N(CCN(C)C)C(=O)[C@@H]2OC(C)=O)cc1` [DILTIAZEM], for which the half-inhibitory concentration (IC50) result is “Not Active” and the Ki entry is “Not Active”.

In another data set the target is 5-hydroxytryptamine receptor 2B (Homo sapiens, UniProt P41595). Further: in other assays of this panel Not Active means under 50% inhibition at 10 µM.
5-hydroxytryptamine receptor 2B, sequence (P41595 whole entry): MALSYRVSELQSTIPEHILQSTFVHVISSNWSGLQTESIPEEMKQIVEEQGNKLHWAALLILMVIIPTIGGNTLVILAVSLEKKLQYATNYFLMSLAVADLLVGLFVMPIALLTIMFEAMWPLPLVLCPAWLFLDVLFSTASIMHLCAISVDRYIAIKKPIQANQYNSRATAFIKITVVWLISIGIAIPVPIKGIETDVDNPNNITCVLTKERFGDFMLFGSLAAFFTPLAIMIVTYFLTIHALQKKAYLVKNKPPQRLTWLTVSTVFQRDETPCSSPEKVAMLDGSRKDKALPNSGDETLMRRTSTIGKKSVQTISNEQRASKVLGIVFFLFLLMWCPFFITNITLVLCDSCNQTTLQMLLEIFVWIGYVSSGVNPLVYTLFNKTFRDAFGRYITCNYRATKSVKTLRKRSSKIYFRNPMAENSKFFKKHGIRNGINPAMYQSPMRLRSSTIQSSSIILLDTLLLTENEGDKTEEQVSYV
Experiment: not given
Particulars: cho-k1. It counts as cell membranes, CHO-K1, Membrane.
As for `CCCCCCCCCc1ccc(O)cc1` [4-NONYLPHENOL], the 50% inhibitory concentration (IC50) result is reported as “Not Active”.
Same read-out and setting: to `c1ccc2c(c1)cc1ccc3cccc4ccc2c1c34` belongs “Not Active”; to `COc1ccc([C@@H]2Sc3ccccc3N(CCN(C)C)C(=O)[C@@H]2OC(C)=O)cc1` [DILTIAZEM], “Not Active”.

Another data set has as its target T3, Alpha-1B adrenergic receptor (Rattus norvegicus, UniProt P15823).
T3 sequence (P15823 whole entry): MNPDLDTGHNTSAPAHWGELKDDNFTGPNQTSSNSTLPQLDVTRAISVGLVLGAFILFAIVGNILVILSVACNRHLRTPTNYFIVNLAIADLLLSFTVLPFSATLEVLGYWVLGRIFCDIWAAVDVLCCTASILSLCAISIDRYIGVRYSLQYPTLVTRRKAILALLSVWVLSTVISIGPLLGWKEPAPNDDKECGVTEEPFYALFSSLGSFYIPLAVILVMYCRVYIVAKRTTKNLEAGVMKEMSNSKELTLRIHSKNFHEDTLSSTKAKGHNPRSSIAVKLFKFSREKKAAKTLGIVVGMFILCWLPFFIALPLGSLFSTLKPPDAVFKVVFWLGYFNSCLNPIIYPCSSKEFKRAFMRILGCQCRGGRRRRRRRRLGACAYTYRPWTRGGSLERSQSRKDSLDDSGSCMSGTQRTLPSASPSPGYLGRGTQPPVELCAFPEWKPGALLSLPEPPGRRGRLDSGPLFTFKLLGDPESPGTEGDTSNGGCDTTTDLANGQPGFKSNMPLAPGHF
Briefly: DRUGMATRIX: Alpha-1B adrenergic receptor radioligand binding (ligand: prazosin). The data set is classed as cell membranes, Wistar, Liver, Membrane. As to conditions: Not Active = under 50% inhibition at 10 µM.
`CCCCCCCCCc1ccc(O)cc1` [4-NONYLPHENOL]: the concentration for half-maximal inhibition (IC50) entry is “Not Active”.
On the same count and under the same terms, to `c1ccc2c(c1)cc1ccc3cccc4ccc2c1c34` belongs “Not Active”; to `COc1ccc([C@@H]2Sc3ccccc3N(CCN(C)C)C(=O)[C@@H]2OC(C)=O)cc1` [DILTIAZEM], “Not Active”.

The target in another data set is Histamine H2 receptor (Homo sapiens, UniProt P25021). Further: in other assays of this panel Not Active means under 50% inhibition at 10 µM.
Histamine H2 receptor, sequence (P25021 whole entry): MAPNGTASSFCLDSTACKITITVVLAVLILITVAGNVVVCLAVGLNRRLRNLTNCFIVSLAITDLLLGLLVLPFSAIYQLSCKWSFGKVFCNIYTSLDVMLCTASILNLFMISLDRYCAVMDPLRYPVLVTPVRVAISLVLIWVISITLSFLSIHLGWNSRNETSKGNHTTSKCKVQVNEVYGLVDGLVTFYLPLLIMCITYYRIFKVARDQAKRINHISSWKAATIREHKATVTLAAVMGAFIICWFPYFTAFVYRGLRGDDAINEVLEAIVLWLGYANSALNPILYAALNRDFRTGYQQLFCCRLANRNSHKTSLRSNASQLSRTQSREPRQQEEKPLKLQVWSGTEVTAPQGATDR
Experiment: not given
The data set is classed as cell membranes, CHO-K1, Membrane. As to conditions: cho-k1.
For `CCCCCCCCCc1ccc(O)cc1` [4-NONYLPHENOL], the IC50 entry is recorded as “Not Active”.
Take `c1ccc2c(c1)cc1ccc3cccc4ccc2c1c34`: the half-inhibitory concentration (IC50) result is “Not Active”.
Still for that read-out and setting: the entry for `COc1ccc([C@@H]2Sc3ccccc3N(CCN(C)C)C(=O)[C@@H]2OC(C)=O)cc1` [DILTIAZEM] is “Not Active”.

Another data set has as its target T4, Polyunsaturated fatty acid lipoxygenase ALOX15 (Oryctolagus cuniculus, UniProt P12530).
T4 sequence (P12530 whole entry): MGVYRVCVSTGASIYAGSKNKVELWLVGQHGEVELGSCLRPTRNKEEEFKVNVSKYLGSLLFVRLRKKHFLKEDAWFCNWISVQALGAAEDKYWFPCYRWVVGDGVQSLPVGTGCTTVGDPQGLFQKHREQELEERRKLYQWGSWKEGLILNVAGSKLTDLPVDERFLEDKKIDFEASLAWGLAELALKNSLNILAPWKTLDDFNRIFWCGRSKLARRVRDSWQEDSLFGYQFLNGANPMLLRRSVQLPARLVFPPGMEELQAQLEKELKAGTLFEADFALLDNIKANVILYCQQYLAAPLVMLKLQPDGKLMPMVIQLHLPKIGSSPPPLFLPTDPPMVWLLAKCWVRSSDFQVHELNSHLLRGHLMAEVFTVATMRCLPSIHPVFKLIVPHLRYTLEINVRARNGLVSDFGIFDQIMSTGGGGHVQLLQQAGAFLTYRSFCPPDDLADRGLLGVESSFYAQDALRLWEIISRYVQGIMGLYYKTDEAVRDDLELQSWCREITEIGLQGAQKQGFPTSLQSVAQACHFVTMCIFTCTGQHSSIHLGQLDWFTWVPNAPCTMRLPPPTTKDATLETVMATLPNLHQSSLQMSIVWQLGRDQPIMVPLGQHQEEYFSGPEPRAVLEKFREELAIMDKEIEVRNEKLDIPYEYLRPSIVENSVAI
Briefly: biochemical. As to conditions: reticulocytes. It counts as tissue-based, Reticulocytes.
On to `CCCCCCCCCc1ccc(O)cc1` [4-NONYLPHENOL], for which the IC50 result was “Not Active”.
The same measure, in the same setting: to `c1ccc2c(c1)cc1ccc3cccc4ccc2c1c34` belongs “Not Active”; to `COc1ccc([C@@H]2Sc3ccccc3N(CCN(C)C)C(=O)[C@@H]2OC(C)=O)cc1` [DILTIAZEM], “Not Active”.

The target of the next data set is Cytochrome P450 2E1 (Homo sapiens, UniProt P05181). Further: in other assays of this panel Not Active means under 50% inhibition at 10 µM.
Cytochrome P450 2E1, sequence (P05181 whole entry): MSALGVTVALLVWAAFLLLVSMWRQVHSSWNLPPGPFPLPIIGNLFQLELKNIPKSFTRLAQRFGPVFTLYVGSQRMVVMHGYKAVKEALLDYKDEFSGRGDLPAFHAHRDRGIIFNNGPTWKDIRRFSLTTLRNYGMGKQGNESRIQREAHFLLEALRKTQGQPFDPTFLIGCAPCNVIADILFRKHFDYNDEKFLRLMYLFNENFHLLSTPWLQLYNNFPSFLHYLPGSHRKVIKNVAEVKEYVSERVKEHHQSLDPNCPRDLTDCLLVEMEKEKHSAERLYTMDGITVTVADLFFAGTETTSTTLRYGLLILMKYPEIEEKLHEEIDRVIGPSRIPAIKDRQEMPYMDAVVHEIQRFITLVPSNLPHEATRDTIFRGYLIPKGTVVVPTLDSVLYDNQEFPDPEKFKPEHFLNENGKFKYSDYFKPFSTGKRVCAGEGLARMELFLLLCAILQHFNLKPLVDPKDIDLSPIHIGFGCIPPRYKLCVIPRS
Experiment: not given
Particulars: bti-tn-5b1-4.
`CCCCCCCCCc1ccc(O)cc1` [4-NONYLPHENOL]: the IC50 entry is on record as “Not Active” and the Ki entry is given as “Not Active”.
For the compound `c1ccc2c(c1)cc1ccc3cccc4ccc2c1c34`, the half-maximal inhibitory concentration (IC50) entry is “Not Active” and the Ki result is “Not Active”.
For the compound `COc1ccc([C@@H]2Sc3ccccc3N(CCN(C)C)C(=O)[C@@H]2OC(C)=O)cc1` [DILTIAZEM], the IC50 entry is given as “Not Active” and the Ki result was “Not Active”.

Source of the values: ChEMBL document CHEMBL1909046, “DrugMatrix in vitro pharmacology data”.
